These are literature values, as cited in patent publication US20130203688A1, “SUGAR PLANT DERIVED BY-PRODUCTS AND METHODS OF PRODUCTION THEREOF” (FÉDÉRATION DES PRODUCTEURS ACÉRI-COLES DU QUÉBEC, priority 2010, published 2013).

Each structure is given as a SMILES string.

On to `COc1ccc(C2OC(=O)C(O)(Cc3ccc(OC4OC(C)C(O)C(O)C4O)c(OC)c3)C2CO)cc1OC` (centres unmarked) [compound 7], for which the “Properties: α-glucosidase-inhibiting action” value in the data set on α-glucosidase is “α- glucosidase- inhibiting”. For the same compound, the “Properties: human HL-60 proliferation-inhibiting action” value with human HL-60 is on record as “human HL-60 proliferation- inhibiting”. For `COc1cc(C2c3c(cc(OC)c(O)c3OC)CC(CO)C2CO)cc(OC)c1O` (centres unmarked) [compound 8, Lyoniresinol], the “Properties: tyrosinase inhibitory” value in the data set on tyrosinase is “tyrosinase inhibitory”. For `COc1cc(/C=C/CO)cc(OC)c1O` [compound 10, Syringenin], in the data set with TNFα secretion, the “Properties: TNFα-secretion inhibitor” value was “TNFα- secretion inhibitor”. As to `Oc1ccccc1O` [compound 11, 1,2-Benzenediol(catechol)], the “Properties: inhibit the synthesis of melanin” value in the data set on synthesis of melanin is given as “inhibit the synthesis of melanin”. Also, the “Properties: antibacterial” value in the data set on bacteria is “Antibacterial”. Besides, in the data set with tyrosinase, the “Properties: tyrosinase inhibitory” value is listed as “inhibit the activity of tyrosinase”. Take `COc1cc(C2Oc3c(OC)cc(CCCO)cc3C2CO)ccc1O` (centres unmarked) [compound 15]: the “Properties: antitumor” value with tumor is on record as “Antitumor/”.
